Data: US7893266B2, “Detection of cancer cells in vitro using sigma-2 receptor ligands as radiotracers” (Washington University, priority 2003, dated 2011)
Where two headings read alike, the source gives them in different places.

How the values were obtained:
[1] = Biodistribution in EMT-6 BALB/C mice; format: in vivo; conditions: Balb/c, mouse, intravenous
Procedure: (§1) As used herein, the term “tumor:background ratio” (i.e., tumor:fat ratio, tumor:muscle ratio, tumor:lung ratio, tumor:blood ratio) refers to the % injected dose/g tissue of the radiotracer in the tumor divided by the % injected dose/g […] in the background tissue (i.e., fat, muscle, lung, blood).
(§2) B. Biodistribution Studies of ^11C analogs in Tumor-Bearing Mice. Biodistribution studies were conducted in mature Balb/c mice that were implanted with EMT-6 mammary tumors identified herein as EMT-6 BALB/C mice to create laboratory tumor-bearing mice. The mice were implanted in the scapular region seven days prior to the study. Animals were injected with 100-150 μCi of the ^11C-labeled radiotracer and the animals were sacrificed at 5, 30, and 60 min post-i.v. injection of the radiotracer.
(§3) A series of biodistribution studies in tumor-bearing mice were also conducted with [^76Br]8, [^76Br]6, [^125I]8i, and [^125I]6i.

[2] = tested on: EMT-6 mammary tumors; assay: Biodistribution in EMT-6 BALB/C mice; format: in vivo
Procedure: as §1, §2, §3

[3] = tested on: EMT-6 breast tumor xenograft; assay: MicroPET imaging studies in mice bearing EMT-6 breast tumor; format: in vivo, Balb-c mice
Procedure: The no-carrier-added (NCA) study is on the left and the sigma receptor blocking study (1 mg/kg, i.v. YUN-143) is shown on the right.
This compound was studied in mature Balb/C mice that were implanted with EMT-6 mammary tumors. The mice were implanted in the nape of the neck 7 days prior to the study. The biodistribution study consisted of three groups: 1 hr low dose (≈6 μCi), 4 hr low dose and a 4 hr high dose (≈150 μCi). The % ID/g at 1 hr for tumor, brain, fat, blood and liver were 4.0±0.4, 0.25±0.02, 1.1±0.4, 2.1±0.3 and 5.4±0.4, respectively. At 4 hr for the low dose animals the values decreased to 1.2±0.2, 0.15±0.02, 0.3±0.2, 0.82±0.08 and 1.3±0.2, respectively. […] The activity injected into the high dose animals was enough to perform microPET® imaging studies. […] This initial study has shown that this σ2 receptor compound has a high uptake into EMT-6 mammary tumors and can be imaged non-invasively. (MicroPET® is a dedicated PET scanner designed for high resolution imaging of small laboratory animals. It is available from Concorde Microsystems, Inc. 10427 Cogdill Rd, Suite 500 Knoxville, Tenn. 37932 USA.)
MicroPET® Imaging Studies—The inventors conducted microPET® imaging studies with [^76Br]6 in Balb-c mice bearing EMT-6 breast tumor xenografts to model a living mammal afflicted with cancer.

[4] = target: T1, σ2 receptors in the breast tumors (Mus musculus, UniProt Q8VD00); assay: In vivo blocking studies with YUN 143 in tumor-bearing mice; conditions: blocking agent YUN 143 (1 mg/kg, i.v.); time point of highest % I.D./gram tumor
T1 construct: mature Balb/c mice that were implanted with EMT-6 mammary tumors; from tissue; host or cells: EMT-6 mammary tumours in Balb/c mice, in vivo
T1 sequence (Q8VD00 1-176): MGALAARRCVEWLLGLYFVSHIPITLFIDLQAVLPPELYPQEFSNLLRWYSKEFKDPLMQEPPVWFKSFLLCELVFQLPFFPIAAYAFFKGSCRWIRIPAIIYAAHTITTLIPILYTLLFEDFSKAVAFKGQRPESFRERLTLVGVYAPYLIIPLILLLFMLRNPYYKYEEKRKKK
Text: The blocking agent was YUN 143, which has a high affinity for σ1 and σ2 receptors. Animals were sacrificed at the time point displaying the highest % I.D./gram tumor.
The inventors then conducted blocking studies in order to confirm that the radiotracer labeled σ2 receptors in the breast tumors. […] We have previously reported that [^18F]YUN 143 labels σ1 and σ2 receptors in breast tumor xenografts (Mach et al., 2001).

[5] = kidney, read-out: % ID per gram kidney
[6] = liver, read-out: % ID per gram liver
[7] = spleen, read-out: % ID per gram spleen

SMILES: COc1cc2c(cc1OC)CN(CCCCNC(=O)c1cc([76Br])cc(OC)c1OC)CC2 [[^76Br]6]
- tissue uptake at 2 h [1, 5]: 1.85 ± 0.54 %ID/g
- tissue uptake at 4 h [1, 5]: 0.57 ± 0.12 %ID/g
- tissue uptake at 2 h [1, 6]: 1.67 ± 0.1 %ID/g
- tissue uptake at 4 h [1, 6]: 0.71 ± 0.08 %ID/g
- tissue uptake at 4 h ([1]; lung, read-out: % ID per gram lung): 0.29 ± 0.03 %ID/g
- tissue uptake at 5 min ([1]; spleen, 5 min, read-out: % ID per gram spleen): 12.5 ± 1.46 %ID/g
- tissue uptake at 30 min ([1]; spleen, 30 min, read-out: % ID per gram spleen): 6.91 ± 1.22 %ID/g
- tissue uptake at 1 h ([1]; spleen, 1 hour, read-out: % ID per gram spleen): 2.61 ± 0.62 %ID/g
- tissue uptake at 2 h [1, 7]: 0.6 ± 0.03 %ID/g
- tissue uptake at 4 h [1, 7]: 0.2 ± 0.03 %ID/g
- ratio Tumor:blood ([2]; 5 min): 2.25 ± 0.28
- ratio Tumor:fat ([2]; 5 min): 1.30 ± 0.24
- ratio Tumor:heart ([2]; 5 min): 0.65 ± 0.07
- ratio Tumor:lung ([2]; 5 min): 0.19 ± 0.02
- ratio Tumor:muscle ([2]; 5 min): 1.32 ± 0.16
- ratio Tumor:blood ([2]; 30 min): 2.41 ± 0.08
- ratio Tumor:fat ([2]; 30 min): 2.35 ± 0.34
- ratio Tumor:heart ([2]; 30 min): 2.48 ± 0.17
- ratio Tumor:lung ([2]; 30 min): 0.93 ± 0.09
- ratio Tumor:muscle ([2]; 30 min): 3.70 ± 1.06
- ratio Tumor:blood ([2]; 1 hour): 2.53 ± 0.54
- ratio Tumor:fat ([2]; 1 hour): 5.09 ± 1.39
- ratio Tumor:heart ([2]; 1 hour): 3.72 ± 0.72
- ratio Tumor:lung ([2]; 1 hour): 1.64 ± 0.30
- ratio Tumor:muscle ([2]; 1 hour): 6.76 ± 2.09
- ratio Tumor:blood ([2]; 2 hour): 3.79 ± 0.99
- ratio Tumor:fat ([2]; 2 hour): 7.97 ± 1.95
- ratio Tumor:heart ([2]; 2 hour): 5.77 ± 0.60
- ratio Tumor:lung ([2]; 2 hour): 2.30 ± 0.13
- ratio Tumor:muscle ([2]; 2 hour): 8.81 ± 0.91
- ratio Tumor:blood ([2]; 4 hour): 3.17 ± 0.58
- ratio Tumor:fat ([2]; 4 hour): 20.69 ± 10.77
- ratio Tumor:heart ([2]; 4 hour): 6.24 ± 1.28
- ratio Tumor:lung ([2]; 4 hour): 2.36 ± 0.46
- ratio Tumor:muscle ([2]; 4 hour): 9.48 ± 2.14
- % ID per gram blood ([2]; 5 min): 2.12 ± 0.20 % ID per gram
- % ID per gram blood ([2]; 30 min): 2.20 ± 0.24 % ID per gram
- % ID per gram blood ([2]; 1 hour): 1.60 ± 0.22 % ID per gram
- % ID per gram blood ([2]; 2 hour): 0.46 ± 0.07 % ID per gram
- % ID per gram blood ([2]; 4 hour): 0.21 ± 0.03 % ID per gram
- % ID per gram bone ([2]; 5 min): 3.10 ± 0.67 % ID per gram
- % ID per gram bone ([2]; 30 min): 2.76 ± 0.58 % ID per gram
- % ID per gram bone ([2]; 1 hour): 1.38 ± 0.09 % ID per gram
- % ID per gram bone ([2]; 2 hour): 0.56 ± 0.20 % ID per gram
- % ID per gram bone ([2]; 4 hour): 0.12 ± 0.03 % ID per gram
- % ID per gram brain ([2]; 5 min): 1.60 ± 0.15 % ID per gram
- % ID per gram brain ([2]; 30 min): 0.41 ± 0.06 % ID per gram
- % ID per gram brain ([2]; 1 hour): 0.17 ± 0.02 % ID per gram
- % ID per gram brain ([2]; 2 hour): 0.05 ± 0.00 % ID per gram
- % ID per gram brain ([2]; 4 hour): 0.03 ± 0.00 % ID per gram
- % ID per gram fat ([2]; 5 min): 3.78 ± 0.97 % ID per gram
- % ID per gram fat ([2]; 30 min): 2.27 ± 0.16 % ID per gram
- % ID per gram fat ([2]; 1 hour): 0.81 ± 0.16 % ID per gram
- % ID per gram fat ([2]; 2 hour): 0.22 ± 0.05 % ID per gram
- % ID per gram fat ([2]; 4 hour): 0.04 ± 0.02 % ID per gram
- % ID per gram heart ([2]; 5 min): 7.31 ± 0.70 % ID per gram
- % ID per gram heart ([2]; 30 min): 2.15 ± 0.30 % ID per gram
- % ID per gram heart ([2]; 1 hour): 1.08 ± 0.07 % ID per gram
- % ID per gram heart ([2]; 2 hour): 0.30 ± 0.03 % ID per gram
- % ID per gram heart ([2]; 4 hour): 0.11 ± 0.02 % ID per gram
- % ID per gram kidney ([2]; 5 min): 31.20 ± 2.92 % ID per gram
- % ID per gram kidney ([2]; 30 min): 18.51 ± 2.66 % ID per gram
- % ID per gram kidney ([2]; 1 hour): 10.81 ± 1.72 % ID per gram
- % ID per gram liver ([2]; 5 min): 10.99 ± 0.29 % ID per gram
- % ID per gram liver ([2]; 30 min): 8.85 ± 0.52 % ID per gram
- % ID per gram liver ([2]; 1 hour): 4.58 ± 0.36 % ID per gram
- % ID per gram lung ([2]; 5 min): 24.64 ± 2.74 % ID per gram
- % ID per gram lung ([2]; 30 min): 5.81 ± 1.12 % ID per gram
- % ID per gram lung ([2]; 1 hour): 2.45 ± 0.17 % ID per gram
- % ID per gram lung ([2]; 2 hour): 0.74 ± 0.04 % ID per gram
- % ID per gram muscle ([2]; 5 min): 3.62 ± 0.27 % ID per gram
- % ID per gram muscle ([2]; 30 min): 1.54 ± 0.49 % ID per gram
- % ID per gram muscle ([2]; 1 hour): 0.61 ± 0.11 % ID per gram
- % ID per gram muscle ([2]; 2 hour): 0.20 ± 0.03 % ID per gram
- % ID per gram muscle ([2]; 4 hour): 0.07 ± 0.01 % ID per gram
- % ID per gram tumor ([2]; 5 min): 4.78 ± 0.78 % ID per gram
- % ID per gram tumor ([2]; 30 min): 5.31 ± 0.62 % ID per gram
- % ID per gram tumor ([2]; 1 hour): 3.98 ± 0.58 % ID per gram
- % ID per gram tumor ([2]; 2 hour): 1.71 ± 0.17 % ID per gram
- % ID per gram tumor ([2]; 4 hour): 0.68 ± 0.15 % ID per gram
- microPET imaging: identification of tumors ([3]; high dose animals, 1 and 2 hr, three animals): tumors were clearly identified
- microPET imaging: tumor uptake, NCA study versus sigma receptor blocking study ([3]; no-carrier-added versus blocking with YUN-143 1 mg/kg i.v.): high uptake of the radiotracer in the NCA study (left image), which can be blocked with a known sigma receptor ligand
- in vivo blocking study result [4]: consistent with the labeling of σ2 receptors in vivo
